Laboratory results from patent US12473304B2, “Heterocyclic PAD4 inhibitors” (BRISTOL-MYERS SQUIBB COMPANY, priority 2020, dated 2025).

These compounds were tested against human PAD4 (hPAD4) (Homo sapiens (Human), UniProt Q9UM07) (assay: RFMS Human PAD4 Functional Assay 1). Details: RFMS assay 1; 5 nM hPAD4, 250 μM BAEE substrate, 50 μM calcium, 37° C.
Format: biochemical
In short: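 Recombinant hPAD4 (5 nM) was preincubated with compound (top 50 μM, 0.5% DMSO) for 30 min at 37 °C, then reacted with 250 μM BAEE for 90 min at 37 °C in pH 7.5 HEPES buffer with 50 μM calcium and 5 μM TPEN. Product was derivatized with phenyl glyoxal and quantified by RapidFire MS.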

Chain of human PAD4 (hPAD4) (Q9UM07 whole entry): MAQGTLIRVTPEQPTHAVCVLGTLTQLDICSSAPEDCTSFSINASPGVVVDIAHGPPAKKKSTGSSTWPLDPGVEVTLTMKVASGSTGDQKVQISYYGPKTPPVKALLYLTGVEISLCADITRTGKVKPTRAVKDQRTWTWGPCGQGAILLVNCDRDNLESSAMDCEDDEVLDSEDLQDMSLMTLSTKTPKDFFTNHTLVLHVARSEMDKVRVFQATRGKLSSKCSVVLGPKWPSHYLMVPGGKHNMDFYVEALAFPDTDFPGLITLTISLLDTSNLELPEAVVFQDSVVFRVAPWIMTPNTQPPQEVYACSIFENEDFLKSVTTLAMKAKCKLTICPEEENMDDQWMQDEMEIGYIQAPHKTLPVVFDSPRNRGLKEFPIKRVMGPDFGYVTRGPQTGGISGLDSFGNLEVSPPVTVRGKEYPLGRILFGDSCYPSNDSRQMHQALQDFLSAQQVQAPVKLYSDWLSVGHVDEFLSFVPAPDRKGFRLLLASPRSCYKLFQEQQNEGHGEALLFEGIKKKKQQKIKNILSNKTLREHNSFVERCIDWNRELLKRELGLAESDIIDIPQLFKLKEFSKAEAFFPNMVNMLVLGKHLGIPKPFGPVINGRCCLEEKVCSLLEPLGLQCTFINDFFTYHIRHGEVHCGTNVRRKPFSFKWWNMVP

| IC50 [µM] | Structure (SMILES) |
| --- | --- |
| 0.04 | COc1cc(C(=O)N2CCC[C@@H](N)C2)cn2nc(-c3cc4cccc(C5CCN(C(=O)[C@H]6CC[C@H](O)CC6)CC5)c4n3CC3CC3)c(C)c12 [Example 408, ((R)-3-Aminopiperidin-1-yl)(2-(1-(cyclopropylmethyl)-7-(1-((1r,4r)-4-hydroxycyclohexane-1-carbonyl)piperidin-4-yl)-1H-indol-2-yl)-4-methoxy-3-methylpyrazolo[1,5-a]pyridin-6-yl)methanone] |
| 0.04 | COc1cc(C(=O)N2C[C@H](N)C[C@@H](F)C2)cn2nc(-c3cc4cccc(C5CCN(C(=O)[C@H]6CC[C@H](O)CC6)CC5)c4n3CC3CC3)c(C)c12 [Example 409, ((3R,5R)-3-Amino-5-fluoropiperidin-1-yl)(2-(1-(cyclopropylmethyl)-7-(1-((1r,4r)-4-hydroxycyclohexane-1-carbonyl)piperidin-4-yl)-1H-indol-2-yl)-4-methoxy-3-methylpyrazolo[1,5-a]pyridin-6-yl)methanone] |
| 0.09 | COc1cc(C(=O)N2CCC[C@@H](N)C2)cn2nc(-c3cc4cccc(C5CCN(C(C)=O)CC5)c4n3CC3CC3)c(C)c12 [Example 410, (R)-1-(4-(2-(6-(3-Aminopiperidine-1-carbonyl)-4-methoxy-3-methylpyrazolo[1,5-a]pyridin-2-yl)-1-(cyclopropylmethyl)-1H-indol-7-yl)piperidin-1-yl)ethan-1-one] |
| 0.11 | COc1cc(C(=O)N2C[C@H](N)C[C@@H](F)C2)cn2nc(-c3cc4cccc(C5CCN(C(C)=O)CC5)c4n3CC3CC3)c(C)c12 [Example 411, 1-(4-(2-(6-((3R,5R)-3-Amino-5-fluoropiperidine-1-carbonyl)-4-methoxy-3-methylpyrazolo[1,5-a]pyridin-2-yl)-1-(cyclopropylmethyl)-1H-indol-7-yl)piperidin-1-yl)ethan-1-one] |
| 0.01 | COc1cc(C(=O)N2CC3CCC2[C@@H]3N)cn2nc(-c3cc4cccc(C5CCN(C(C)=O)CC5)c4n3CC3CC3)c(C)c12 (stereo partly drawn) [Example 412, 1-(4-(2-(6-((7R)-7-Amino-2-azabicyclo[2.2.1]heptane-2-carbonyl)-4-methoxy-3-methylpyrazolo[1,5-a]pyridin-2-yl)-1-(cyclopropylmethyl)-1H-indol-7-yl)piperidin-1-yl)ethan-1-one] |
| 0.03 | CC(=O)N1CCC(c2cccc3cc(-c4nn5cc(C(=O)N6CCC[C@@H](N)C6)cc(F)c5c4C)n(CC4CC4)c23)CC1 [Example 413, (R)-1-(4-(2-(6-(3-Aminopiperidine-1-carbonyl)-4-fluoro-3-methylpyrazolo[1,5-a]pyridin-2-yl)-1-(cyclopropylmethyl)-1H-indol-7-yl)piperidin-1-yl)ethan-1-one] |
| 0.26 | Cc1c(-c2cc3cccc(C4CCN(C(=O)[C@H]5CC[C@H](O)CC5)CC4)c3n2CC2CC2)nn2cc(C(=O)N3C[C@H](N)C[C@@H](F)C3)cc(F)c12 [Example 414, ((3R,5R)-3-Amino-5-fluoropiperidin-1-yl)(2-(1-(cyclopropylmethyl)-7-(1-((1r,4r)-4-hydroxycyclohexane-1-carbonyl)piperidin-4-yl)-1H-indol-2-yl)-4-fluoro-3-methylpyrazolo[1,5-a]pyridin-6-yl)methanone] |
| 0.46 | Cc1c(-c2cc3cccc(C4CCN(C(=O)[C@H]5CC[C@H](O)CC5)CC4)c3n2CC2CC2)nn2cc(C(=O)N3CCC[C@@H](N)C3)cc(F)c12 [Example 415, ((R)-3-Aminopiperidin-1-yl)(2-(1-(cyclopropylmethyl)-7-(1-((1r,4r)-4-hydroxycyclohexane-1-carbonyl)piperidin-4-yl)-1H-indol-2-yl)-4-fluoro-3-methylpyrazolo[1,5-a]pyridin-6-yl)methanone] |
| 0.56 | Cc1c(-c2cc3cccc(C4CCN(C(=O)[C@H]5CC[C@@H](O)CC5)CC4)c3n2CC2CC2)nn2cc(C(=O)N3C[C@H](N)C[C@@H](F)C3)cc(F)c12 [Example 416, ((3R,5R)-3-Amino-5-fluoropiperidin-1-yl)(2-(1-(cyclopropylmethyl)-7-(1-((1s,4s)-4-hydroxycyclohexane-1-carbonyl)piperidin-4-yl)-1H-indol-2-yl)-4-fluoro-3-methylpyrazolo[1,5-a]pyridin-6-yl)methanone] |
| 5.06 | COC(C)(C)C(=O)N1CCC(c2cccc3cc(-c4nn5cc(C(=O)N6C[C@H](N)C[C@@H](F)C6)cc(F)c5c4C)n(CC4CC4)c23)CC1 [Example 417, 1-(4-(2-(6-((3R,5R)-3-Amino-5-fluoropiperidin-1-carbonyl)-4-fluoro-3-methylpyrazolo[1,5-a]pyridin-2-yl)-1-(cyclopropylmethyl)-1H-indol-7-yl)piperidin-1-yl)-2-methoxy-2-methylpropan-1-one] |
| 1.71 | COC(C)(C)C(=O)N1CCC(c2cccc3cc(-c4nn5cc(C(=O)N6CCC[C@@H](N)C6)cc(F)c5c4C)n(CC4CC4)c23)CC1 [Example 418, (R)-1-(4-(2-(6-(3-Aminopiperidin-1-carbonyl)-4-fluoro-3-methylpyrazolo[1,5-a]pyridin-2-yl)-1-(cyclopropylmethyl)-1H-indol-7-yl)piperidin-1-yl)-2-methoxy-2-methylpropan-1-one] |
| 0.15 | CO[C@@H](C)C(=O)N1CCC(c2cccc3cc(-c4nn5cc(C(=O)N6C[C@H](N)C[C@@H](F)C6)cc(F)c5c4C)n(CC4CC4)c23)CC1 [Example 423, (S)-1-(4-(2-(6-((3R,5R)-3-Amino-5-fluoropiperidine-1-carbonyl)-4-fluoro-3-methylpyrazolo[1,5-a]pyridin-2-yl)-1-(cyclopropylmethyl)-1H-indol-7-yl)piperidin-1-yl)-2-methoxypropan-1-one] |
| 0.08 | CO[C@@H](C)C(=O)N1CCC(c2cccc3cc(-c4nn5cc(C(=O)N6CCC[C@@H](N)C6)cc(F)c5c4C)n(CC4CC4)c23)CC1 [Example 424, (S)-1-(4-(2-(6-((R)-3-Aminopiperidine-1-carbonyl)-4-fluoro-3-methylpyrazolo[1,5-a]pyridin-2-yl)-1-(cyclopropylmethyl)-1H-indol-7-yl)piperidin-1-yl)-2-methoxypropan-1-one] |
| 0.05 | CO[C@H](C)C(=O)N1CCC(c2cccc3cc(-c4nn5cc(C(=O)N6C[C@H](N)C[C@@H](F)C6)cc(F)c5c4C)n(CC4CC4)c23)CC1 [Example 425, (R)-1-(4-(2-(6-((3R,5R)-3-Amino-5-fluoropiperidine-1-carbonyl)-4-fluoro-3-methylpyrazolo[1,5-a]pyridin-2-yl)-1-(cyclopropylmethyl)-1H-indol-7-yl)piperidin-1-yl)-2-methoxypropan-1-one] |
| 0.05 | CO[C@H](C)C(=O)N1CCC(c2cccc3cc(-c4nn5cc(C(=O)N6CCC[C@@H](N)C6)cc(F)c5c4C)n(CC4CC4)c23)CC1 [Example 426, (R)-1-(4-(2-(6-((R)-3-Aminopiperidine-1-carbonyl)-4-fluoro-3-methylpyrazolo[1,5-a]pyridin-2-yl)-1-(cyclopropylmethyl)-1H-indol-7-yl)piperidin-1-yl)-2-methoxypropan-1-one] |
| 0.02 | CC(=O)N1CCC(c2cccc3cc(-c4nn5cc(C(=O)N6C[C@H](N)C[C@@H](F)C6)cc(F)c5c4C)n(CC4CC4)c23)CC1 [Example 427, 1-(4-(2-(6-((3R,5R)-3-Amino-5-fluoropiperidine-1-carbonyl)-4-fluoro-3-methylpyrazolo[1,5-a]pyridin-2-yl)-1-(cyclopropylmethyl)-1H-indol-7-yl)piperidin-1-yl)ethan-1-one] |
| 0.03 | COCC(=O)N1CCC(c2cccc3cc(-c4nn5cc(C(=O)N6C[C@H](N)C[C@@H](F)C6)cc(F)c5c4C)n(CC4CC4)c23)CC1 [Example 428, 1-(4-(2-(6-((3R,5R)-3-Amino-5-fluoropiperidine-1-carbonyl)-4-fluoro-3-methylpyrazolo[1,5-a]pyridin-2-yl)-1-(cyclopropylmethyl)-1H-indol-7-yl)piperidin-1-yl)-2-methoxyethan-1-one] |
| 0.04 | COCC(=O)N1CCC(c2cccc3cc(-c4nn5cc(C(=O)N6CCC[C@@H](N)C6)cc(F)c5c4C)n(CC4CC4)c23)CC1 [Example 429, (R)-1-(4-(2-(6-(3-Aminopiperidine-1-carbonyl)-4-fluoro-3-methylpyrazolo[1,5-a]pyridin-2-yl)-1-(cyclopropylmethyl)-1H-indol-7-yl)piperidin-1-yl)-2-methoxyethan-1-one] |
| 0.08 | Cc1c(-c2cc3cccc(C4CCN(C(=O)CCO)CC4)c3n2CC2CC2)nn2cc(C(=O)N3C[C@H](N)C[C@@H](F)C3)ccc12 [Example 430, 1-(4-(2-(6-((3R,5R)-3-amino-5-fluoropiperidine-1-carbonyl)-3-methylpyrazolo[1,5-a]pyridin-2-yl)-1-(cyclopropylmethyl)-1H-indol-7-yl)piperidin-1-yl)-3-hydroxypropan-1-one] |
| 0.13 | Cc1c(-c2cc3cccc(C4CCN(C(=O)COC(C)C)CC4)c3n2CC2CC2)nn2cc(C(=O)N3C[C@H](N)C[C@@H](F)C3)ccc12 [Example 431, 1-(4-(2-(6-((3R,5R)-3-amino-5-fluoropiperidine-1-carbonyl)-3-methylpyrazolo[1,5-a]pyridin-2-yl)-1-(cyclopropylmethyl)-1H-indol-7-yl)piperidin-1-yl)-2-isopropoxyethan-1-one] |
| 0.2 | Cc1c(-c2cc3cccc(C4CCN(C(=O)COC(C)C)CC4)c3n2CC2CC2)nn2cc(C(=O)N3CCC[C@@H](N)C3)ccc12 [Example 432, (R)-1-(4-(2-(6-(3-aminopiperidine-1-carbonyl)-3-methylpyrazolo[1,5-a]pyridin-2-yl)-1-(cyclopropylmethyl)-1H-indol-7-yl)piperidin-1-yl)-2-isopropoxyethan-1-one] |
| 0.14 | Cc1c(-c2cc3cccc(C4CCN(C(=O)C(C)(C)CO)CC4)c3n2CC2CC2)nn2cc(C(=O)N3C[C@H](N)C[C@@H](F)C3)ccc12 [Example 433, 1-(4-(2-(6-((3R,5R)-3-amino-5-fluoropiperidine-1-carbonyl)-3-methylpyrazolo[1,5-a]pyridin-2-yl)-1-(cyclopropylmethyl)-1H-indol-7-yl)piperidin-1-yl)-3-hydroxy-2,2-dimethylpropan-1-one] |
